According to patent publication US20210095293A1, “METHODS OF TREATING CANCERS WITH GPR132 INHIBITORS” (The Board of Regents of the University of Texas System, priority 2016, published 2021):

Experiments:
[1] = system: bone marrow derived macrophages (BMDMs); test: macrophage M2-like morphology (elongation); format: cell-based, mouse; conditions: WT BMDMs, exogenous lactate added
From the text: FIGS. 9A-9D. Tumor-derived factors activate M2-like macrophages via Gpr132. (FIG. 9A) The pH values of conditioned media (CM) from cancer cells or macrophages (n=5-8); *p<0.05, ****p<0.001 compared with RAW 264.7 macrophage CM. (FIG. 9B) Western blot for CD206 and Gpr132 in RAW 264.7 macrophages after treatment with indicated cancer cell CM for 24 hrs. Actin was used as a loading control. The CD206/actin or Gpr132/actin ratio was quantified and shown as fold changes compared to control (n=3); *p<0.05, ***p<0.005 compared with control. (FIG. 9C) Flow cytometry analysis of Gpr132 and CD206 in BMDMs with or without EO771 CM treatment. The experiments were repeated twice and the representative results are shown. (FIG. 9D) Immunofluorescence staining for CD11b in WT and Gpr132-KO BMDMs after differentiation in the absence or presence of 30% EO771 CM or 4T1.2 CM for 7 days. Elongated macrophage morphology indicates a M2-like phenotype. Nuclei were stained with DAPI. Scale bar, 25 μm. WT, wild-type; Gpr132-KO, Gpr132 knockout.
FIGS. 10A-10F. […] LC-MS was used to quantify lactate in the eluent of Gpr132 co-IP. (Left) Representative LC-MS chromatograms; (Right) Quantification of relative lactate binding (n=3). ****p<0.001 compared with WT. […] CD206/actin ratio was quantified and shown as fold changes compared to control (n=3-4); *p<0.05 compared with WT control. […]

AKT/mTOR signaling = test: PathScan Akt Signaling Antibody Array in macrophages; format: cell-based, mouse; conditions: lactate 5 mM for 15 min
Method: FIG. 20. Lactate activates macrophage AKT/mTOR signaling via Gpr132. WT and Gpr132-KO bone marrow-derived macrophages were serum starved for 24 hrs. After treatment with lactate (5 mM) for 15 min, cell lysate was harvested for detecting the activation status of AKT signaling pathway using a PathScan Akt Signaling Antibody Array Kit. WT, wild-type; Gpr132-KO, Gpr132 knockout.
To identify the signaling pathways that may mediate the function of lactate-Gpr132 axis in M2 macrophage activation, PathScan Akt Signaling Antibody Array was used to screen potential targets due to the importance of the Akt pathway in macrophage polarization. […] These findings reveal that lactate activation of Gpr132 facilitates macrophage M2 activation by augmenting AKT/mTOR signaling.
Samples of 20 μg protein were applied to SDS polyacrylamide gels. After protein transfer, membranes were incubated with antibodies for Arg-1 (rabbit polyclonal, Santa Cruz Biotechnology), CD206, Gpr132, or β-actin (mouse monoclonal, Sigma) (1:1000) overnight at 4° C. […] Densitometric quantification was performed by Image-Pro Plus 6.0 software (Media Cybernetics). PathScan Akt Signaling Antibody Array (Cell Signaling) was incubated with macrophage proteins and analyzed following kit instructions.

SMILES: CC(O)C(=O)O (stereo not drawn) [lactate]
- rescue of M2-like morphology by addition to CM of oxamic acid-treated cells [1]: restored
- increase of AKT/mTOR pathway phosphorylation in Gpr132-KO macrophages (AKT/mTOR signaling; Gpr132-KO BMDMs): not
- phosphorylation of AKT (Thr308), mTOR (Ser2481), S6 Ribosomal protein (Ser235/236) and RSK-1 (Thr421/Ser424) in WT macrophages (AKT/mTOR signaling; serum starved WT BMDMs): increased
